Data reported in PMC12703938, “Positive modulation of sigma-1 receptor: a new weapon to mitigate disease progression in amyotrophic lateral sclerosis” (Translational Neurodegeneration, 2025).
Structures can show the parent of a compound that is named as a salt.

Tested on: T1, sigma-1 receptor (S1R)
T1 construct: gene SIGMAR1; S1R-GFP expressed in CHO cells; with BiP
Assay: S1R/BiP dissociation assay in S1R-GFP CHO cells (GFP-Trap, BiP ELISA)
Type: cell-based

SMILES | IC50 [nM]
C[C@]12CC[C@H](O)CC1=CC[C@@H]1[C@@H]2CC[C@]2(C)C(=O)CC[C@@H]12 [DHEA] | 1170
